In patent publication US20140094462A1, “SONIC HEDGEHOG MODULATORS” (priority 2009, published 2014):
Like-named read-outs stand apart in the source and are kept apart here.

Columns and labels:
Gli1 = assay: Primary keratinocyte cell culture, reduction in Gli mRNA; format: cell-based; conditions: primary human keratinocytes
Method: To study the potency of the compounds of the invention in cells, select compounds of the invention were conducted with keratinocytes and the reduction in Gli mRNA was measured. Culturing of primary human keratinocytes was previously described (Nguyen, B. C., et al., Genes & Dev. 20:1028-1042 (2006)). The full thickness skin model, EpiDermFT System (MatTek, Ashland), consisted of normal, human-derived epidermal keratinocytes and normal, human-derived dermal fibroblasts which have been cultured to form a multilayered, highly differentiated model of the human dermis and epidermis. […] Gene expression is compared by quantifying mRNA levels by real time RT-PCR. For this, total RNA preparations […] are used in a reverse transcriptase reaction with a mix of oligonucleotide dT and random hexamer primers, followed by real time PCR with gene-specific primers (Gli1: Qiagen Quantitect PrimerAssay QT00060501; Gli2: Qiagen Quantitect PrimerAssay QT00018648), using an […] real time detection system (Bio-Rad) according to the manufacturer's recommendation, with SYBR Green (Bio-Rad) for detection.

ShhN protein = biological target: T1, ShhN protein (Homo sapiens, UniProt Q15465); assay: Surface Plasmon Resonance (SPR) protein binding assay on immobilized ShhN
T1 construct: auto-cleavage of full length Shh into an active 20 kD N-terminal fragment (ShhN); purchased R&D Systems
Method: Biacore™ T100 (GE Healthcare, Uppsala, Sweden) was used to perform the experiments described herein. Sensor surface preparation and interaction analyses experiments were performed at 25° C.
Control surfaces were prepared similarly without protein derivatization and were utilized as a reference surfaces for compound binding experiments.
Zero concentration blank buffer cycles were included as negative control samples.
Data analysis was carried out using Biacore T100 evaluation software v1.1.1. […] Solvent correction was then applied as described previously.

C3H10T1/2 = assay: Induction of osteogenic differentiation (modulation of osteoblast differentiation); conditions: Mus musculus, C3H 10T1/2, read-out: IC50 (nM) C3H10T1/2
From the text: Using assays previously described in Dwyer et al., J. Biol. Chem. 282, (2007), 8959-68 and Nakamura et al., Biochm. […] Res. Comm., 237 (1997) 465-9, select compounds of the invention were screened for their ability to modulate osteoblast differentiation.

[1] = rcm bond, toluene
[2] = SPR, Biacore T100, ShhN immobilized on CM4 chip, 25° C., compound 0.78 μM-25 μM, read-out: KD

T1 sequence (Q15465 24-197 limits assumed, species assumed): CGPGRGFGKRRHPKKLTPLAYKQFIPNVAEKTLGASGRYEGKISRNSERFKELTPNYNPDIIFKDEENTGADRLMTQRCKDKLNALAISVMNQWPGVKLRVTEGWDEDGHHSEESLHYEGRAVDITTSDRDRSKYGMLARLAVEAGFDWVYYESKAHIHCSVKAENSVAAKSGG

IC50 (Gli1) [µM] | Kd (ShhN protein; [2]) [µM] | IC50 (C3H10T1/2) [nM] | Kd (ShhN protein) [µM] | SMILES | ring closure, yield of all isomers ([1]; from C=CC[C@@H](C)C(=O)OC[C@H](NC(=O)[C@@H](C)CC=C)c1ccccc1, Grubbs II, 20.0 mM, 25.0 °C, 12.0 h) [%] | ring closure, yield of all isomers ([1]; from C=CC[C@@H](C)C(=O)OC[C@H](NC(=O)C(F)(F)CC=C)c1ccccc1) [%]
> 100 | – | – | – | O=C(CCc1ccc(Cl)cc1)N[C@@H]1C/C=C/CCC(=O)O[C@H](c2ccccc2)CNC1=O [CA] | – | –
1 to 100 | > 100 | – | – | CCN(CC)CCCNC(=O)C[C@@H]1C/C=C/CCC(=O)O[C@H](c2ccccc2)CNC1=O [EG] | – | –
1 to 100 | > 100 | – | – | CCOCCNC(=O)C[C@@H]1C/C=C/CCC(=O)O[C@H](c2ccccc2)CNC1=O [EH] | – | –
1 to 100 | > 100 | – | – | CCCCN1CCC(CNC(=O)C[C@@H]2C/C=C/CCC(=O)O[C@H](c3ccccc3)CNC2=O)CC1 [EI] | – | –
0.1 to 1 | 1 to 100 | – | – | O=C(C[C@@H]1C/C=C/CCC(=O)O[C@H](c2ccccc2)CNC1=O)NC1CCCc2ccccc21 (stereo partly shown) [ER] | – | –
< 0.1 | 0.1 to 1 | – | – | O=C(C[C@@H]1C[C@@H]2O[C@H]2CCC(=O)O[C@H](c2ccccc2)CNC1=O)NCc1ccc(Cl)cc1 [Example BY, N-(4-chlorobenzyl)-2-((1S,6R,10S,12S)-4,9-dioxo-6-phenyl-5,13-dioxa-8-azabicyclo[10.1.0]tridecan-10-yl)acetamide] | – | –
0.1 to 1 | 1 to 100 | – | – | O=C(C[C@@H]1C[C@H](O)[C@@H](O)CCC(=O)O[C@H](c2ccccc2)CNC1=O)NCc1ccc(Cl)cc1 [Example BZ, N-(4-chlorobenzyl)-2-((2R,6S,8S,9S)-8,9-dihydroxy-5,12-dioxo-2-phenyl-1-oxa-4-azacyclododecan-6-yl)acetamide] | – | –
0.1 to 1 | > 100 | – | – | O=C1CC/C=C/CCC(=O)O[C@H](c2ccccc2)CN1 [Example CB, (R,E)-2-phenyl-1-oxa-4-azacyclododec-8-ene-5,12-dione] | – | –
1 to 100 | 1 to 100 | – | – | O=C(C[C@@H]1C[C@@H]2O[C@H]2CCC(=O)N[C@H](c2ccccc2)COC1=O)NCc1ccc(Cl)cc1 [Example CD, N-(4-chlorobenzyl)-2-((1S,3S,7R,12S)-4,9-dioxo-7-phenyl-5,13-dioxa-8-azabicyclo[10.1.0]tridecan-3-yl)acetamide] | – | –
< 0.1 | 0.1 to 1 | < 100 | – | O=C1CC/C=C/C[C@@H](CC(=O)N2CCCCC2)C(=O)NC[C@@H](c2ccccc2)O1 [Example CQ, (2R,6S,E)-6-(2-oxo-2-(piperidin-1-yl)ethyl)-2-phenyl-1-oxa-4-azacyclododec-8-ene-5,12-dione] | – | –
< 0.1 | < 0.1 | < 100 | – | O=C(C[C@@H]1C/C=C/CCC(=O)O[C@H](c2ccccc2)CNC1=O)N[C@@H]1CCCc2ccccc21 [Example CR, 2-((2R,6S,E)-5,12-dioxo-2-phenyl-1-oxa-4-azacyclododec-8-en-6-yl)-N—((R)-1,2,3,4-tetrahydronaphthalen-1-yl)acetamide] | – | –
< 0.1 | < 0.1 | < 100 | – | O=C(C[C@@H]1C/C=C/CCC(=O)O[C@H](c2ccccc2)CNC1=O)NCCCC(F)(F)F [Example CT, 2-((2R,6S,E)-5,12-dioxo-2-phenyl-1-oxa-4-azacyclododec-8-en-6-yl)-N-(4,4,4-trifluorobutyl)acetamide] | – | –
– | < 0.1 | 100 to 1000 | – | C[C@@H]1C/C=C/C[C@H](C)C(=O)N[C@H](c2ccccc2)COC1=O [Example D, (3R,6S,11R,E)-6,11-dimethyl-3-phenyl-1-oxa-4-azacyclododec-8-ene-5,12-dione] | 78 | –
– | 0.1 to 1 | 100 to 1000 | – | C[C@H]1[C@@H](c2ccccc2)OC(=O)CCCCC[C@@H](CC(=O)NCc2ccc(Cl)cc2)C(=O)N1C [Example DC, N-(4-chlorobenzyl)-2-((2R,3S,6S)-3,4-dimethyl-5,12-dioxo-2-phenyl-1-oxa-4-azacyclododecan-6-yl)acetamide] | – | –
– | < 0.1 | 100 to 1000 | – | O=C(C[C@@H]1C/C=C/CCC(=O)N[C@H](c2ccccc2)COC1=O)NCc1ccc(Cl)nc1 [Example DD, N-((6-chloropyridin-3-yl)methyl)-2-((3R,11S,E)-5,12-dioxo-3-phenyl-1-oxa-4-azacyclododec-8-en-11-yl)acetamide] | – | –
– | 0.1 to 1 | 100 to 1000 | – | CC(C)N[C@H]1C/C=C/C[C@@H](CC(=O)NCc2ccc(Cl)cc2)C(=O)NC[C@@H](c2ccccc2)OC1=O [Example DE, N-(4-chlorobenzyl)-2-((2R,6S,11S,E)-11-(isopropylamino)-5,12-dioxo-2-phenyl-1-oxa-4-azacyclododec-8-en-6-yl)acetamide] | – | –
– | 0.1 to 1 | 100 to 1000 | – | C[C@H]1C/C=C/C[C@@H](CC(=O)NCc2ccc(Cl)cc2)C(=O)NC[C@@H](c2ccccc2)OC1=O [Example DF, N-(4-chlorobenzyl)-2-((2R,6S,11S,E)-11-methyl-5,12-dioxo-2-phenyl-1-oxa-4-azacyclododec-8-en-6-yl)acetamide] | – | –
– | 0.1 to 1 | 1000 to 100000 | – | C[C@H]1C/C=C/C[C@@H](CC(=O)NCc2ccc(Cl)cc2)C(=O)OC[C@@H](c2ccccc2)NC1=O [Example DI, N-(4-chlorobenzyl)-2-((3R,6S,11S,E)-6-methyl-5,12-dioxo-3-phenyl-1-oxa-4-azacyclododec-8-en-11-yl)acetamide] | – | –
– | < 0.1 | 1000 to 100000 | – | CCN(CC)C(=O)C[C@@H]1C/C=C/CCC(=O)O[C@H](c2ccccc2)CNC1=O [Example DO, 2-((2R,6S,E)-5,12-dioxo-2-phenyl-1-oxa-4-azacyclododec-8-en-6-yl)-N,N-diethylacetamide] | – | –
– | – | > 100000 | 1 to 100 | O=C(C[C@@H]1C/C=C/CCC(=O)O[C@H](c2ccccc2)CNC1=O)NCc1ccc([N+](=O)[O-])cc1 [Example DQ, 2-((2R,6S,E)-5,12-dioxo-2-phenyl-1-oxa-4-azacyclododec-8-en-6-yl)-N-(4-nitrobenzyl)acetamide] | – | –
1 to 100 | 1 to 100 | – | – | O=C(C[C@@H]1C/C=C/CCC(=O)O[C@H](c2ccccc2)CNC1=O)NCC1CCOCC1 [Example EF, 2-((2R,6S,E)-5,12-dioxo-2-phenyl-1-oxa-4-azacyclododec-8-en-6-yl)-N-((tetrahydro-2H-pyran-4-yl)methyl)acetamide] | – | –
0.1 to 1 | 0.1 to 1 | – | – | O=C1CC/C=C/C[C@@H](CC(=O)N2CCN(c3ccccc3)CC2)C(=O)NC[C@@H](c2ccccc2)O1 [Example ES, (2R,6S,E)-6-(2-oxo-2-(4-phenylpiperazin-1-yl)ethyl)-2-phenyl-1-oxa-4-azacyclododec-8-ene-5,12-dione] | – | –
– | 0.1 to 1 | 1000 to 100000 | – | O=C(C[C@@H]1C[C@H](O)[C@@H](O)CCC(=O)OC[C@@H]2CCCN2C1=O)NCc1ccc(Cl)cc1 [Example G, N-(4-chlorobenzyl)-2-((6S,7S,9S,14aS)-6,7-dihydroxy-3,10-dioxododecahydro-1H-pyrrolo[2,1-c][1,4]oxaazacyclododecin-9-yl)acetamide] | – | –
– | < 0.1 | 1000 to 100000 | – | O=C1CC/C=C/C[C@@H](O)C(=O)OC[C@@H](c2ccccc2)N1 [Example H, (3R,11R,E)-11-hydroxy-3-phenyl-1-oxa-4-azacyclododec-8-ene-5,12-dione] | – | –
– | < 0.1 | 1000 to 100000 | – | C[C@@H]1CCCCCC(=O)N[C@H](c2ccccc2)COC1=O [Example J, (3R,11R)-11-methyl-3-phenyl-1-oxa-4-azacyclododecane-5,12-dione] | – | –
– | 0.1 to 1 | > 100000 | – | C[C@@H]1C/C=C/CC(F)(F)C(=O)N[C@H](c2ccccc2)COC1=O [Example K, (3R,11R,E)-6,6-difluoro-11-methyl-3-phenyl-1-oxa-4-azacyclododec-8-ene-5,12-dione] | – | 84
– | 0.1 to 1 | > 100000 | – | C[C@@H]1C/C=C/C[C@@H](N)C(=O)N[C@H](c2ccccc2)COC1=O [Example M, (3R,6R,11R,E)-6-amino-11-methyl-3-phenyl-1-oxa-4-azacyclododec-8-ene-5,12-dione] | – | –
– | 0.1 to 1 | > 100000 | – | CC(=O)N[C@@H]1C/C=C/C[C@@H](C)C(=O)OC[C@@H](c2ccccc2)NC1=O [Example N, N-((3R,6R,11R,E)-11-methyl-5,12-dioxo-3-phenyl-1-oxa-4-azacyclododec-8-en-6-yl)acetamide] | – | –
> 100 | > 100 | – | – | O=C(O)C[C@@H]1C/C=C/CCC(=O)O[C@H](c2ccccc2)CNC1=O [GC, 2-((2R,6S,E)-5,12-dioxo-2-phenyl-1-oxa-4-azacyclododec-8-en-6-yl)acetic acid] | – | –
1 to 100 | 1 to 100 | – | – | CN1C(=O)CC/C=C/C[C@@H](CC(=O)NCc2ccc(Cl)cc2)C(=O)OC[C@H]1c1ccccc1 [GH, N-(4-chlorobenzyl)-2-((3R,11S,E)-4-methyl-5,12-dioxo-3-phenyl-1-oxa-4-azacyclododec-8-en-11-yl)acetamide] | – | –
